The values that follow come from patent US7973219B2, “Method for producing transgenic plants resistant to weed control compounds which disrupt the porphyrin pathways of plants” (Sumitomo Chemical Company, Limited, priority 1998, dated 2011).

The test system of assay [1] is tobacco into which the gene encoding the variant Chlamydomonas reinhardtii PPO was introduced. The assay is described as follows: Leaf piece chlorophyll test, tobacco with gene encoding variant Chlamydomonas reinhardtii PPO. The assay is classed as in vivo. The settings on record: Table 10; for Resistant level to test compound: same manner as Example 6 (0.3 ppm), treated vs untreated leaf pieces; for Total chlorophyll content treated-leaf: same manner as Example 6 (0.3 ppm, 7 days in light). The source says:
The tobacco leaves into which bchH gene was introduced and control recombinant tobacco leaves obtained in Example 5 were collected and each leaf was divided into the right and left equivalent pieces along the main vein, respectively. To one piece was applied an aqueous solution containing 0.3 ppm PPO inhibitory-type herbicidal compound of Structure 8, while, to the other piece was not applied the compound. These leaf pieces were placed on MS medium containing 0.8% agar and allowed to stand at room temperature for 7 days in light place. Then, each leaf piece was ground with pestle and mortar in 5 ml of 80% aqueous acetone solution to extract chlorophyll. The extract liquid was diluted with 80% aqueous acetone solution and the absorbance was measured at 750 nm, 663 nm and 645 nm to calculate total chlorophyll content according to the method described by Macknney G., J. Biol. Chem. (1941) 140, p 315. The results obtained from 4 clones of tobacco into which bchH gene was introduced (BCH1 to 4) and control recombinant tobacco is shown in Table 4. In the table, the resistant level to the herbicidal compound was represented by percentages of the total chlorophyll content of leaf pieces treated with herbicidal compound to that of untreated leaf pieces.
Leaf pieces of tobacco cultured sterilely were infected with the Agrobacterium strain and, according to the same manner as in Example 5, tobacco into which the gene encoding the variant Chlamydomonas reinhardtii PPO was introduced was obtained.
The level of resistance to the PPO-inhibitory type herbicidal compound represented by Structure 8 was confirmed quantitatively by testing tobacco into which the gene encoding the variant Chlamydomonas reinhardtii PPO prepared in Example 18 was introduced according to the same manner as in Example 6. The results obtained from 4 clones (CRP 1-4) of tobacco into which the gene encoding the variant Chlamydomonas reinhardtii PPO was introduced and control recombinant tobacco is shown in Table 10. In the table, the resistant levels to the herbicidal compound are represented by percentages of the total chlorophyll content of leaf pieces treated with the herbicidal compound to that of untreated leaf pieces.

For assay [2], the system named is E. coli BT3/pACYCSP+pRASSL strain. The assay can be described thus: Growth of E. coli BT3/pACYCSP+pRASSL with herbicidal compound. The settings on record: 1 ppm, 18 hours culture, Table 15. The assay is classed as cell-based, Escherichia coli. The source says:
According to the description of Gibson, L. C. D. et al., Proc. Natl. Acad. Sci. USA, 92; p 1941 (1995), the DNA fragment containing bchH gene prepared in Example 1 was digested with the restriction enzymes NdeI and BglII. The resultant DNA fragment was inserted between NdeI restriction site and BamHI restriction site of expression vector pET11a (manufactured by Stratagene) to obtain plasmid pETBCH (FIG. 1). This plasmid pETBCH was introduced into E. coli BL21(DE3) strain competent cells (manufactured by Stratagene) according to the manual attached to the competent cells to obtain E. coli BL21(DE3)/pETBCH strain. […] When the absorbance at 600 nm of the liquid culture medium became about 0.6, isopropyl β-D-thiogalactopyranoside (IPTG) was added to the liquid culture medium so that the final concentration was 0.4 mM, and the culture was continued for about additional 20 hours. […]
These E. coli strains were inoculated into YPT medium containing 1 ppm of the PPO inhibitory-type herbicidal compound represented by Structure 8, 100 μg/ml ampicillin, 15 μg/ml chloramphenicol, 10 μg/ml kanamycin, 10 μg/ml hemin and 50 μg/ml aminolevulinic acid, cultured under dark conditions or light conditions according to the same manner as in Example 2. Then, 18 hours after initiation of culture, the absorbance of liquid culture medium was measured at 600 nm. […]

On to `C#CCOc1cc(N2C(=O)C3=C(CCCC3)C2=O)c(F)cc1Cl` [Structure 8], for which the “Resistant level to test compound” value in assay [1] (clone CRP-1) was found to be 121%; in assay [1] (clone CRP-2) it was 111%; in assay [1] (clone CRP-3), 101%; in assay [1] (clone CRP-4), 99.4%. Also, the “Total chlorophyll content treated-leaf” value in assay [1] (clone CRP-1) is listed as 1.54 mg/g-fresh weight; in assay [1] (clone CRP-2), 1.67 mg/g-fresh weight; in assay [1] (clone CRP-3) it was 1.11 mg/g-fresh weight. The Relative absorbance is 1.0 in assay [2] (in the dark) and 0.59 in assay [2] (in the light).
